We go through 14 molecules from US8278319B2, “Substituted spiroamine compounds” (Gruenenthal GmbH, priority 2008, dated 2012).

For one assay, the target named is T1, human B1R (Homo sapiens, UniProt P46663).
T1 construct: expressed in transfected cells; host or cells: CHO K1 cells
T1 sequence (P46663 1-353): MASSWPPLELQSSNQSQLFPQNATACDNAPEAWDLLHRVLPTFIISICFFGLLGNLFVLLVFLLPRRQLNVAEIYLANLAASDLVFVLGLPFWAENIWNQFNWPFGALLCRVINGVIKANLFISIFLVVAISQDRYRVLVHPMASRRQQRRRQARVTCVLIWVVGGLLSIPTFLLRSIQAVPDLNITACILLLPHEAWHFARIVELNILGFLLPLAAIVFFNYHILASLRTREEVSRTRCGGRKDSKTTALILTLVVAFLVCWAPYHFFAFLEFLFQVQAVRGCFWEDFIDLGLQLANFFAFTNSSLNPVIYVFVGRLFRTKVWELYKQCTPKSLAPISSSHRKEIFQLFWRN
Description: Functional investigation on the bradykinin receptor 1 (B1R), FLIPR Ca2+ assay, hB1R cells. The assay is classed as cell-based. The note with it: % inhibition human B1R at 10 μM; CHO K1 cells transfected with human B1R; agonist Lys-Des-Arg9 bradykinin at EC80; read-out: % Inh. (hum. B1R) 10 μM. The method, then:
(§1) The agonistic or antagonistic action of substances can be quantified on the bradykinin receptor 1 (B1R) of the human and rat species with ectopically expressing cell lines (CHO K1 cells) and with the aid of a Ca^2+-sensitive dye (Fluo-4) using a fluorescent imaging plate reader (FLIPR). The indication in % activation is based on the Ca^2+ signal after addition of Lys-Des-Arg^9 bradykinin (0.5 nM) or Des-Arg^9 bradykinin (100 nM). Antagonists lead to a suppression of the Ca^2+ influx following administration of the agonist. The % inhibition in comparison with the maximum achievable inhibition is indicated.
(§2) The agonistic or antagonistic action of substances can be determined on the bradykinin 1 receptor (B1R) of the human and rat species with the following assay. According to this assay, the Ca^2+ inflow through the channel is quantified with the aid of a Ca^2+-sensitive dye (Fluo-4 type, Molecular Probes Europe BV, Leiden, The Netherlands) in a fluorescent imaging plate reader (FLIPR, Molecular Devices, Sunnyvale, USA).
(§3) Chinese hamster ovary cells (CHO K1 cells) which are stably transfected with the human B1R gene (hB1R cells) or the B1R gene of the rat (rB1R cells) are used. For functional investigations, these cells are plated-out onto black 96-well plates with a clear base (BD Biosciences, Heidelberg, Germany or Greiner, Frickenhausen, Germany) in a density of 20,000-35,000 cells/well. Overnight, the cells are incubated at 37° C. and 5% CO2 in culture medium (hB1R cells: Nutrient Mixture Ham's F12, Gibco Invitrogen GmbH, Karlsruhe, Germany or DMEM, Sigma-Aldrich, Taufkirchen, Germany; rB1R cells: D-MEM/F12, Gibco Invitrogen, Karlsruhe, Germany) with 10 vol. % FBS (foetal bovine serum, Gibco Invitrogen GmbH, Karlsruhe, Germany or PAN Biotech GmbH, Aidenbach, Germany). On the following day the cells are loaded with 2.13 μM Fluo-4 (Molecular Probes Europe BV, Leiden, The Netherlands) in HBSS buffer (Hank's buffered saline solution, Gibco Invitrogen GmbH, Karlsruhe, Germany) with 2.5 mM probenecid (Sigma-Aldrich, Taufkirchen, Germany) and 10 mM HEPES (Sigma-Aldrich, Taufkirchen, Germany) for 60 min at 37° C. The plates are the washed twice with HBSS buffer, and HBSS buffer which additionally contains 0.1% BSA (bovine serum albumin; Sigma-Aldrich, Taufkirchen, Germany), 5.6 mM glucose and 0.05% gelatine (Merck KGaA, Darmstadt, Germany) is added. After a further incubation of 20 minutes at room temperature, the plates are inserted into the FLIPR for Ca^2+ measurement. Alternatively they are washed with buffer A (15 mM HEPES, 80 mM NaCl, 5 mM KCl, 1.2 mM CaCl2, 0.7 mM MgSO4, 2 g/l glucose, 2.5 mM probenecid) and loaded with buffer A with added 2.5 μM Fluo-4 and 0.025% Pluronic F127 (Sigma-Aldrich, Taufkirchen, Germany). The cells are then washed twice with buffer A and incubated for 30 minutes with buffer A, which additionally contains 0.05% BSA and 0.05% gelatine, at room temperature and then used for Ca^2+ measurement in the FLIPR.
(§4) The Ca^2+-dependent fluorescence is measured here before and after addition of substances (λex=488 nm, λem=540 nm). The quantification is performed by measuring the highest fluorescence intensity (FC, fluorescence counts) over time.
(§5) The FLIPR protocol comprises two additions of substance. Test substances (10 μM) are first pipetted onto the cells and the Ca^2+ inflow is compared with the control (hB1R: Lys-Des-Arg^9 bradykinin>=50 nM; rB1R: Des-Arg^9 bradykinin 10 μM). The value in % activation based on the Ca^2+ signal after addition of Lys-Des-Arg^9 bradykinin (>=50 nM) or Des-Arg^9 bradykinin (10 μM) is obtained therefrom. After incubation for 10-20 minutes, Lys-Des-Arg^9 bradykinin (hB1R) or Des-Arg^9 bradykinin (rB1R) is applied in the EC80 concentration and the inflow of Ca^2+ is likewise determined. Antagonists lead to a suppression of the Ca^2+ inflow. The % inhibition in comparison with the maximum achievable inhibition is calculated. […]

The target of another assay is T2, rat B1R (Rattus norvegicus, UniProt P97583).
T2 construct: expressed in transfected cells; host or cells: CHO K1 cells
T2 sequence (P97583 1-337): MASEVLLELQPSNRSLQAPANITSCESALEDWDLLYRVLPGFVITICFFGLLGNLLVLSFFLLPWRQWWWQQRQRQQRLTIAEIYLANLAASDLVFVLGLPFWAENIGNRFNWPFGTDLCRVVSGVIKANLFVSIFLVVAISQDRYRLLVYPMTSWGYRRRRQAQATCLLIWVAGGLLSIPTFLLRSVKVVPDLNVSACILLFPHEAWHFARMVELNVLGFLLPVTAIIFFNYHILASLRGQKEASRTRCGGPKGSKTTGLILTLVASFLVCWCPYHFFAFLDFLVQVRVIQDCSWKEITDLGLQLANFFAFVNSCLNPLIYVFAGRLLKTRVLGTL
Description: Functional investigation on the bradykinin receptor 1 (B1R), FLIPR Ca2+ assay, rB1R cells. The assay is classed as cell-based. Particulars: % inhibition rat B1R at 10 μM; CHO K1 cells transfected with rat B1R; agonist Des-Arg9 bradykinin at EC80; read-out: % Inh. (rat B1R) 10 μM. The method, then: as §1, §2, §3, §4, §5

As for `COc1cc(C)c(S(=O)(=O)N2c3ccccc3C[C@H]2COCC(=O)N2CCC3(CC2)CCC(c2ccccc2)(N(C)C)CC3)c(C)c1` [Compound 4, 1-(9-(Dimethylamino)-9-phenyl-3-azaspiro[5.5]undecan-3-yl)-2-(((S)-1-(4-methoxy-2,6-dimethylphenylsulfonyl)indolin-2-yl)methoxy)ethanone], the inhibition at 10 µM on human B1R worked out at 98%; at rat B1R, 102%.

In the case of `CN(C)C1(c2ccccc2)CCC2(CCN(C(=O)C[C@@H](NS(=O)(=O)c3ccc4ccccc4c3)c3ccccc3)CC2)CC1` [Compound 5, N-((1R)-3-(9-(Dimethylamino)-9-phenyl-3-azaspiro[5.5]undecan-3-yl)-3-oxo-1-phenylpropyl)naphthalene-2-sulfonamide], the results for the inhibition at 10 µM at human B1R and on rat B1R were 77% and 99%, respectively.

Take `COc1cc(C)c(S(=O)(=O)N2CCCC[C@H]2COCC(=O)N2CCC3(CC2)CCC(c2ccccc2)(N2CCC2)CC3)c(C)c1` [Compound 12, 1-(9-(Azetidin-1-yl)-9-phenyl-3-azaspiro[5.5]undecan-3-yl)-2-(((S)-1-(4-methoxy-2,6-dimethylphenylsulfonyl)piperidin-2-yl)methoxy)ethanone]: the inhibition at 10 µM came out at 100% on human B1R and 102% at rat B1R.

Take `COc1cc(C)c(S(=O)(=O)N2CCCC[C@H]2COCC(=O)N2CCC3(CC2)CCC(c2ccccc2)(N2CC(F)(F)C2)CC3)c(C)c1` [Compound 13, 1-(9-(3,3-Difluoroazetidin-1-yl)-9-phenyl-3-azaspiro[5.5]undecan-3-yl)-2-(((S)-1-(4-methoxy-2,6-dimethylphenylsulfonyl)piperidin-2-yl)methoxy)ethanone]: the results for the inhibition at 10 µM on human B1R and on rat B1R were 86% and 104%, respectively.

With `CN(C)C1(c2cccs2)CCC2(CCN(C(=O)CC(NS(=O)(=O)c3ccc4ccccc4c3)c3ccccc3)CC2)CC1` (stereo not shown) [CC-15, N-[3-(3-Dimethylamino-3-thiophen-2-yl-9-azaspiro[5.5]undecan-9-yl)-3-oxo-1-phenyl-propyl]-naphthalene-2-sulfonic acid amide], the inhibition at 10 µM on human B1R was determined as 69%; at rat B1R it was 100%.

As for `Cc1cc(S(=O)(=O)N2CCCCC2CCC(=O)N2CCC3(CC2)CCC(c2cccs2)(N(C)C)CC3)c(C)cc1Cl` (stereo not shown) [CC-14, 3-[1-[(4-Chloro-2,5-dimethyl-phenyl)sulfonyl]-piperidin-2-yl]-1-(3-dimethylamino-3-thiophen-2-yl-9-azaspiro[5.5]undecan-9-yl)-propan-1-one], the inhibition at 10 µM at human B1R came to 99%; on rat B1R, 101%.

With `COc1cc(C)c(S(=O)(=O)N2CCCCC2CCCC(=O)N2CCC3(CC2)CCC(c2ccccc2)(N(C)C)CC3)c(C)c1` (stereo not shown) [Compound 8, 1-(9-(Dimethylamino)-9-phenyl-3-azaspiro[5.5]undecan-3-yl)-4-(1-(4-methoxy-2,6-dimethylphenylsulfonyl)piperidin-2-yl)butan-1-one], the inhibition at 10 µM on human B1R and at rat B1R was 98% in each case.

As for `Cc1cc(S(=O)(=O)N2CCCCC2CCC(=O)N2CCC3(CC2)CCC(c2ccccc2)(N(C)C)CC3)c(C)cc1Cl` (stereo not shown) [Compound 7, 3-(1-(4-Chloro-2,5-dimethylphenylsulfonyl)piperidin-2-yl)-1-(9-(dimethylamino)-9-phenyl-3-azaspiro[5.5]undecan-3-yl)propan-1-one], the inhibition at 10 µM is 98% on human B1R and 97% on rat B1R.

As for `COc1cc(C)c(S(=O)(=O)N2CCCC[C@H]2COCC(=O)N2CCC3(CC2)CCC(c2cccc(F)c2)(N(C)C)CC3)c(C)c1` [Compound 11, 1-(9-(Dimethylamino)-9-(3-fluorophenyl)-3-azaspiro[5.5]undecan-3-yl)-2-(((S)-1-(4-methoxy-2,6-dimethylphenylsulfonyl)piperidin-2-yl)methoxy)ethanone], the values for the inhibition at 10 µM at human B1R and on rat B1R were 100% and 104%, respectively.

In the case of `Cc1cccc(Cl)c1S(=O)(=O)N(CCOCC(=O)N1CCC2(CC1)CCC(c1cccc(F)c1)(N1CCCC1)CC2)C1CC1` [CC-06, 2-Chloro-N-cyclopropyl-N-[2-[2-[3-(3-fluorophenyl)-3-pyrrolidin-1-yl-9-azaspiro[5.5]undecan-9-yl]-2-oxo-ethoxy]-ethyl]-6-methyl-benzenesulfonic acid amide], the inhibition at 10 µM at human B1R was 100%; at rat B1R it was 97%.

Turning to `CN(C)C1(c2ccccc2)CCC2(CCN(C(=O)CC3CCCCN3S(=O)(=O)c3cccc(C(F)(F)F)c3)CC2)CC1` (stereo not shown) [Compound 9, 1-(9-(Dimethylamino)-9-phenyl-3-azaspiro[5.5]undecan-3-yl)-2-(1-(3-(trifluoromethyl)phenylsulfonyl)piperidin-2-yl)ethan-1-one], the inhibition at 10 µM on human B1R was found to be 92%; at rat B1R, 38%.

`COc1cc(C)c(S(=O)(=O)N2CCCCC2CCCC(=O)N2CCC3(CC2)CCC(c2cccc(F)c2)(N2CCCC2)CC3)c(C)c1` (stereo not shown) [CC-02, 1-[3-(3-Fluorophenyl)-3-pyrrolidin-1-yl-9-azaspiro[5.5]undecan-9-yl]-4-[1-[(4-methoxy-2,6-dimethyl-phenyl)sulfonyl]-pipereridin-2-yl]-butan-1-one]: the inhibition at 10 µM came to 100% at human B1R and 98% at rat B1R.

As for `Cc1cccc(Cl)c1S(=O)(=O)N1CCCC[C@H]1COCC(=O)N1CCC2(CC1)CCC(c1ccccc1)(N(C)C)CC2` [Compound 6, 2-(((S)-1-(2-Chloro-6-methylphenylsulfonyl)piperidin-2-yl)methoxy)-1-(9-(dimethylamino)-9-phenyl-3-azaspiro[5.5]undecan-3-yl)ethanone], the inhibition at 10 µM at human B1R turned out to be 100%; on rat B1R it was 97%.

Regarding `O=C(CC1CCCCN1S(=O)(=O)c1cccc(C(F)(F)F)c1)N1CCC2(CC1)CCC(c1cccc(F)c1)(N1CCCC1)CC2` (stereo not shown) [CC-01, 1-[3-(3-Fluorophenyl)-3-pyrrolidin-1-yl-9-azaspiro[5.5]undecan-9-yl]-2-[1-[[3-(trifluoromethyl)phenyl]sulfonyl]-piperidin-2-yl]-ethanone], the values for the inhibition at 10 µM on human B1R and at rat B1R were 73% and 75%, respectively.
